Series [1] is described as follows: Plasma stability assay at 37 °C via LC-MS/MS, human plasma.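 On all read-outs here: prodrugs at 3 µM incubated in human plasma at 37 °C, intact prodrug quantified by LC-MS/MS over time, values are means of duplicate runs.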 It is filed as in vitro ADME. Conditions: for half-life at 3 µM: human, plasma.
A short description of series [2]: Plasma stability assay via LC-MS/MS, rat plasma. Conditions: read-out: t1/2 in rat plasma (Table S19) (converted). It is filed as in vitro ADME. The method, then: (§1) Building on our observation that rotamer control in the steric series can be modulated by enzymatic stabilization or activation, we next evaluated whether this effect was species dependent. To investigate this, we performed comparative stability studies by incubating select prodrugs (20a, 20b, 20l and 20t; Figure ) in mouse and rat plasma – two of the most commonly used preclinical species in drug development. This approach allowed us to assess the potential influence of species-specific enzymes on rotamer equilibria and, by extension, prodrug activation rates. The self-immolation profiles for the sterically tuned linker series (20a–b) reveal discernible, species-dependent differences prodrug stability. […] While the precise biochemical drivers remain unclear, this observation warrants further investigation beyond the scope of this work.
(§2) 1.2 Stability in Plasma and PBS via LCMS
(§3) Procaine (positive control) was purchased from Sigma-Aldrich. HPLC grade MeCN, MeOH, H2O, and FA were purchased from Fischer Scientific. Human plasma (cat. No. […]- […]
(§4) 0102242) were obtained from BIOIVT. DPBS 1X (no calcium, no magnesium, pH = 7.03) was purchased from Thermo Fischer Scientific. Stock solutions were prepared in 100% DMSO, and suitable dilutions of target analytes were prepared in 0.1% FA /MeCN for method development.
(§5) For PBS assay Gibco® Dulbecco’s phosphate-buffered saline (DPBS 1X, no calcium, no magnesium, pH = 7.03) was utilized. All experiments were performed in duplicate and results are presented as the average of two experimental replicates.
(§6) Procedure for Plasma Stability Assay
(§7) Test compounds and positive control (i.e. procaine) were dissolved in DMSO to make a 10 mM stock solution and subsequently diluted to 500 μM in 50% MeCN and PBS. This intermediate stock solution was prepared and added immediately prior to the start of each test compound experiment. Plasma was thawed at ambient temperature and aliquoted (663.0 μL) into 1.5 mL Eppendorf tubes. Plasma was incubated at 37 °C for 10 minutes in an incubator shaker at 150 rpm, and the reactions were initiated by addition of the test compound or positive control (4.0 µL, 3 μM). The spiked plasma samples were incubated at 37 °C. For designated time points, 75 µL aliquots were removed from the incubation mixture and immediately quenched in 150 µL of MeCN/0.1%FA with internal standard (ISTD, 2 µM d 5-7-ethoxy coumarin). […] The supernatant was transferred to an LC-MS vial and analyzed by LC/MS-MS. […]
(§8) LC–MS/MS analysis was performed using an Agilent 1260 Infinity II HPLC, coupled with an Agilent G6460 triple quadrupole mass spectrometer (Agilent Technologies, USA). All the data were acquired employing Agilent 6460 Quantitative Analysis data processing software. […]

Series [3] can be described thus: Plasma stability assay via LC-MS/MS, mouse plasma. The settings on record: read-out: t1/2 in mouse plasma (Table S20) (converted). It is filed as in vitro ADME. The method, then:
as §1, §2, §3, §4, §5, §6, §7, §8

A short description of series [4]: Stability in PBS at room temperature via HPLC (UV). It is filed as physicochemical. Conditions: phosphate-buffered saline (DPBS). As to the method:
(§9) Stability studies were conducted in PBS and acetate buffer utilizing high performance liquid chromatography for potential drug storage considerations. […]
(§10) All experiments were performed in duplicate and results are presented as the average of two experimental replicates.
(§11) 1.1 Aqueous Stability in PBS and Acetate Buffer via HPLC
(§12) Material and Instrumentation
(§13) HPLC grade acetonitrile (MeCN) […] HPLC grade water (H 2O), and formic acid (FA) were purchased from Fisher Scientific.
(§14) Puradisc 4 mm PTFE (0.45 μm) syringe filters from Cytiva. Gibco ® Dulbecco’s phosphate-buffered saline (DPBS 1X, no calcium, no magnesium, pH = 7.03) and acetate buffer (pH = 5.0, 10 mM) were purchased directly from Thermo Fisher Scientific and Cytiva, respectively.
(§15) Aqueous stability experiments were performed on an Agilent 1100 HPLC equipped with an Agilent G1315B diode array detector, an Agilent G1316A heated column compartment, and a Zorbax Eclipse XDB-C18 (4.6 x 150 mm, 5 μm) column.
(§16) Procedure for Aqueous Stability Experiments
(§17) Each sample was first weighed out in two separate 2.0 mL vials using an analytical balance.
(§18) Unless otherwise specified, the test compounds were then dissolved in the aqueous media (PBS or acetate buffer) at a standard concentration of 1 mg/mL. All mixtures were subsequently sonicated for approximately 30 sec. […]
(§19) min), precipitates observed in sample solutions were filtered with a PTFE syringe filter prior to analysis. Immediately after sample preparation, injection by the HPLC autosampler was performed, which was recorded as the initial time point (t = 0 min). Solutions were then kept in the autosampler at RT and reinjected at designated intervals without additional filtration or sample modification. Remaining prodrug was defined by the area under the curve (AUC) at 254 nm. Aqueous stability was ascertained by calculating the percentage of the parent compound remaining after each time point. Linear regression of the time (x-axis) vs. ln(%remaining) (y-axis) plot afforded the rate constant k (slope = -k). Pseudo first-order half-lives were then calculated by the following equation: t1/2 = 0.693/k.

Series [5] is described as follows: PBS stability assay at 37 °C via LC-MS/MS. The class given is physicochemical. Conditions: 37 °C; for half-life at 3 µM: pH 7.03, PBS.
Series [6] is described as follows: Stability in acetate buffer pH 5.0 at room temperature via HPLC (UV). The class given is physicochemical. As to the method:
as §9, §10, §11, §12, §13, §14, §15, §16, §17, §18, §19

Series [7] in a line: Aqueous solubility by visual inspection in acetate buffer (pH 5). The settings on record: sodium acetate buffer, pH 5, aqueous buffer, thermodynamic from solid.
Procedure: For the solubility assessment, acetate buffer (pH 5) was selected as the media of choice to ensure prodrug stability during analysis.
High aqueous solubility was determined by visual inspection of 5 mg solid material in 0.5 mL
sodium acetate buffer solution. This media was selected to ensure stability of prodrugs during
dissolution in 50 mg/mL aqueous media.
Setting [8] is: 3 µM, LC-MS/MS, read-out: t1/2 in human plasma at 37 °C (Tables S10-S13, S18) (converted).
Where [9] appears, read: LC-MS/MS, read-out: Half-life (t½) Plasma 37°C (converted).
The mark [10] stands for this setting: read-out: Plasma, 37 °C t½ (Table S23) (converted).
The mark [11] stands for this setting: pH 7.03, DPBS pH 7.03, RT, 1 mg/mL, HPLC 254 nm, read-out: t1/2 in PBS buffer at RT (Tables S1-S4) (converted).
Setting [12] is: pH 7.03, PBS, rt, HPLC (UV), read-out: Half-life (t½) PBS rt (converted).
Setting [13] is: pH 7.03, PBS, rt, read-out: t½: PBS, rt (Table S23) (converted).
Setting [14] is: phosphate-buffered saline (DPBS), 3 µM, LC-MS/MS, read-out: t1/2 in PBS at 37 °C (Tables S14-S17) (converted).
The mark [15] stands for this setting: phosphate-buffered saline (DPBS), LC-MS/MS, read-out: Half-life (t½) PBS 37°C (converted).
The mark [16] stands for this setting: phosphate-buffered saline (DPBS), read-out: PBS, 37 °C t½ (Table S23) (converted).
Where [17] appears, read: pH 5, acetate buffer pH 5.0, RT, 1 mg/mL, HPLC 254 nm, read-out: t1/2 in acetate buffer at RT (Tables S5-S8) (converted).
[18] abbreviates: pH 5, acetate buffer pH 5.0, rt, HPLC (UV), read-out: Half-life (t½) pH 5.0 rt (converted).
Setting [19] is: pH 5, acetate buffer pH 5.0, rt, read-out: t½: pH 5.0, rt (Table S23) (converted).

A value given as a limit tells only on which side of the number the result lay.

Turning to `CNCCN(C(=O)O/N=C(\C)[C@H]1CC[C@H]2[C@@H]3CCC4=CC(=O)CC[C@]4(C)[C@H]3CC[C@]12C)C1CC1.O=C(O)C(F)(F)F` [20b], the “Plasma, 37 °C %rem. at 2h (Table S23)” value in series [1] came to 31%. Besides, the half-life at 3 µM was 1.27 h in series [1] (setting [8]); 1.27 h in series [1] (setting [9]); 1.27 h in series [1] (setting [10]); 2.3 h in series [2]; 5.4 h in series [3]; 4.5 h in series [5] (setting [14]). Also, the half-life at 3 µM was 4.5 h in series [5] (setting [15]); 4.5 h in series [5] (setting [16]); 4.5 h in series [5] (phosphate-buffered saline (DPBS), read-out: t1/2 (h) PBS, 37 °C (Tables S25, S26) (converted)). The half-life at 1 mg/mL in series [4] (setting [11]) is 28.16 ± 0.04 h; in series [4] (setting [12]), 28.2 h; in series [4] (setting [13]), 28.2 h; in series [6] (setting [17]) it was greater than 168 h; in series [6] (setting [18]), greater than 168 h; in series [6] (setting [19]), greater than 168 h. In addition, the “PBS, 37 °C %rem. at 2h (Table S23)” value in series [5] (PBS, 2 h) stood at 68%. Besides, the amount remaining at 2 h, 3 µM in series [5] (phosphate-buffered saline (DPBS), pH 7.03, PBS, 2 h, read-out: % Remaining @ 2h, PBS, 37 °C (Tables S25, S26)) came out at 68%. This compound also gave a solubility in series [7] greater than 10000 µg/mL.

In the case of `C/C(=N\OC(=O)N(C)C[C@@H]1CCCN1)[C@H]1CC[C@H]2[C@@H]3CCC4=CC(=O)CC[C@]4(C)[C@H]3CC[C@]12C.O=C(O)C(F)(F)F` [20l], the “Plasma, 37 °C %rem. at 2h (Table S23)” value in series [1] worked out at 1%. For the same compound, the half-life at 3 µM in series [1] (setting [8]) was 0.31 h; in series [1] (setting [9]) it was 0.31 h; in series [1] (setting [10]), 0.31 h; in series [2], 0.4 h; in series [3], 0.4 h; in series [5] (setting [14]) it was 0.74 h. Besides, the half-life at 3 µM in series [5] (setting [15]) and in series [5] (setting [16]) was 0.74 h each time. Moreover, the half-life at 1 mg/mL in series [4] (setting [11]) was 1.9 ± 0.12 h; in series [4] (setting [12]), 1.9 h; in series [4] (setting [13]), 1.9 h; in series [6] (setting [17]) it was 175 h; in series [6] (setting [18]), 175 h; in series [6] (setting [19]) it was 175 h. For the same compound, the “PBS, 37 °C %rem. at 2h (Table S23)” value in series [5] (PBS, 2 h) came out at 8%. Further, the solubility in series [7] is greater than 10000 µg/mL.

Take `CNC1(CN(C)C(=O)O/N=C(\C)[C@H]2CC[C@H]3[C@@H]4CCC5=CC(=O)CC[C@]5(C)[C@H]4CC[C@]23C)CCC1` [20t]: the “Plasma, 37 °C %rem. at 2h (Table S23)” value in series [1] is 4%. Also, the half-life at 3 µM in series [1] (setting [8]) was 0.44 h; in series [1] (setting [9]), 0.43 h; in series [1] (setting [10]), 0.44 h; in series [2] it was 0.46 h; in series [3], 0.34 h; in series [5] (setting [14]), 0.94 h. Besides, the half-life at 3 µM in series [5] (setting [15]) and in series [5] (setting [16]) was 0.94 h throughout. Moreover, the half-life at 1 mg/mL in series [4] (setting [11]) is 10.5 h; in series [4] (setting [12]), 10.5 h; in series [4] (setting [13]) it was 10.5 h; in series [6] (setting [17]) it was greater than 168 h; in series [6] (setting [18]) it was greater than 168 h; in series [6] (setting [19]) it was greater than 168 h. Moreover, in series [5] (PBS, 2 h), the “PBS, 37 °C %rem. at 2h (Table S23)” value was 14%. This compound also had a solubility in series [7] greater than 10000 µg/mL.

The term fraction remaining denotes what is left of the initial amount, in per cent. As usually defined, the solubility is how much of the substance goes into solution per volume.

The values are drawn from paper PMC12516379, “Rotamer-Controlled Self-Immolative Linkers Enable Tunable Release of Neurosteroid Oxime Prodrugs” (ACS Medicinal Chemistry Letters, 2025).
